Source: patent US8921397B2, “Benzofurane-piperidine compounds” (Hoffmann-La Roche Inc., priority 2011, dated 2014)
pKi: −log10 of the molar value.

Experiments:
human 5-HT2A receptor = human 5-HT2A receptor (Homo sapiens (Human), UniProt P28223); assay: Radioligand binding ([3H]-ketanserin) to human 5-HT2A receptor, HEK293 EBNA membranes; details: HEK293 EBNA cells expressing human 5-HT2A receptor
Summary of the method: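 Membranes from HEK293 EBNA cells transiently expressing the human receptor were incubated 1 h at RT with ~0.7 nM (D2) or 0.5 nM (D3) [3H]-spiperone, or 1.1 nM [3H]-ketanserin (5-HT2A), plus ten compound concentrations (10 μM–0.1 nM). Nonspecific binding was set with 10 μM spiperone; Ki was derived from IC50 via Cheng-Prusoff.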

human D3 receptor = human D3 receptor (Homo sapiens (Human), UniProt P35462); assay: Radioligand binding ([3H]-spiperone) to human D3 receptor, HEK293 EBNA membranes; details: HEK293 EBNA cells expressing human D3 receptor
Chain of human D3 receptor (P35462 whole entry): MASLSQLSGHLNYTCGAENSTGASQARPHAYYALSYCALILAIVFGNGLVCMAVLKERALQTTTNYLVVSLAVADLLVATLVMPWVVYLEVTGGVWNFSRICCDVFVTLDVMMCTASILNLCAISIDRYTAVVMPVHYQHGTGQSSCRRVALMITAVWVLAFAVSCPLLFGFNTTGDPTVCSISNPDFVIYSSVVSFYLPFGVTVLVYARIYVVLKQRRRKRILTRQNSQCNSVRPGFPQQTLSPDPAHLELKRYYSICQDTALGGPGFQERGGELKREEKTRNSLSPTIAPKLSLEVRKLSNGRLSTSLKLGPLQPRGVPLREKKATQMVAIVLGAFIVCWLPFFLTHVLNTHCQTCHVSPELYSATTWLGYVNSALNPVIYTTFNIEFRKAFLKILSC
Summary of the method: (§1)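 Membranes from transiently transfected HEK293 EBNA cells (~7.5 μg protein/well) were incubated 1 h at RT with [3H]-spiperone (~0.7 nM for D2, 0.5 nM for D3) and ten compound concentrations (10 μM–0.1 nM) in Tris/NaCl/MgCl2/CaCl2 buffer pH 7.4. Filtration and scintillation counting, nonspecific with 10 μM spiperone; Ki via Cheng-Prusoff.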

human D2 receptor = human D2 receptor (Homo sapiens (Human), UniProt P14416); assay: Radioligand binding ([3H]-spiperone) to human D2 receptor, HEK293 EBNA membranes; details: HEK293 EBNA cells expressing human D2 receptor
Chain of human D2 receptor (P14416 whole entry): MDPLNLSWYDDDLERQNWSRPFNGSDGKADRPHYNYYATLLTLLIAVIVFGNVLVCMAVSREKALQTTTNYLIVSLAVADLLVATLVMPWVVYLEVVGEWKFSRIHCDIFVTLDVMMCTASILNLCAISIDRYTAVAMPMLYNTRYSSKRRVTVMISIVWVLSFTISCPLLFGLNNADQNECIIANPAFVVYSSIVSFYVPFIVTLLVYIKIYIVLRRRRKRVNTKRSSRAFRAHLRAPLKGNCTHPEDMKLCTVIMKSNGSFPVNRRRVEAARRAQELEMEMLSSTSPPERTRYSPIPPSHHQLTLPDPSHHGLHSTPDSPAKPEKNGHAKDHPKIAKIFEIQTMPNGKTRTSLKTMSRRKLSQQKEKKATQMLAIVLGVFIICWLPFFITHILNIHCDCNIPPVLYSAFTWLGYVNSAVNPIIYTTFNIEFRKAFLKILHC
Summary of the method: as §1

Chain of human 5-HT2A receptor (P28223 whole entry): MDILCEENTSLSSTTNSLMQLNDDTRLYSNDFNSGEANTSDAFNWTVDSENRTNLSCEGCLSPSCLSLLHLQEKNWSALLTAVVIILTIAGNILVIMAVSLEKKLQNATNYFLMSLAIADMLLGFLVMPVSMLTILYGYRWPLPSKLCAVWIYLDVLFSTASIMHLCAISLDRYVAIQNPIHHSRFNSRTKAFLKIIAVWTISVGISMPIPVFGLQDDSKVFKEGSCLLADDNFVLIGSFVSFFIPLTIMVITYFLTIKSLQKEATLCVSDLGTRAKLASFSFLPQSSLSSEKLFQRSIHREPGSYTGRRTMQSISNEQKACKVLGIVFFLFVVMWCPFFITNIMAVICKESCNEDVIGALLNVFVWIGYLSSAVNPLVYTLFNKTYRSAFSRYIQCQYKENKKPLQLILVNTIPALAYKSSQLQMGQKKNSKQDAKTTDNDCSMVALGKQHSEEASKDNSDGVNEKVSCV

Structure (SMILES) | pKi (human 5-HT2A receptor) | pKi (human D3 receptor) | melting point | pKi (human D2 receptor)
O=C(N[C@H]1CC[C@H](CCN2CCC(c3coc4ccccc34)CC2)CC1)c1ccc(F)cc1 [Example 24, trans-N-{4-[2-(4-Benzofuran-3-yl-piperidin-1-yl)-ethyl]-cyclohexyl}-4-fluoro-benzamide] | 8.25 | 8.52 | 193 °C | 7.16
O=C(CCO)N[C@H]1CC[C@H](CCN2CCC(c3coc4ccccc34)CC2)CC1 [Example 21, trans-N-{4-[2-(4-Benzofuran-3-yl-piperidin-1-yl)-ethyl]-cyclohexyl}-3-hydroxy-propionamide] | 8.08 | 8.90 | 148 °C | 7.20
CN1CCN(c2ccc(C(=O)N[C@H]3CC[C@H](CCN4CCC(c5coc6ccccc56)CC4)CC3)cc2)CC1 [Example 62, trans-N-{4-[2-(4-Benzofuran-3-yl-piperidin-1-yl)-ethyl]-cyclohexyl}-4-(4-methyl-piperazin-1-yl)-benzamide] | 8.05 | 8.22 | 242 °C | 7.30
CC(C)(C)C(=O)N[C@H]1CC[C@H](CCN2CCC(c3coc4ccccc34)CC2)CC1 [Example 28, trans-N-{4-[2-(4-Benzofuran-3-yl-piperidin-1-yl)-ethyl]-cyclohexyl}-2,2-dimethyl-propionamide] | 8.22 | 7.89 | 157 °C | 7.42
O=C(CC(F)(F)F)N[C@H]1CC[C@H](CCN2CCC(c3coc4ccccc34)CC2)CC1 [Example 12, trans-N-{4-[2-(4-Benzofuran-3-yl-piperidin-1-yl)-ethyl]-cyclohexyl}-3,3,3-trifluoro-propionamide] | 8.09 | 9.00 | 182 °C | 7.37
O=C(N[C@H]1CC[C@H](CCN2CCC(c3coc4ccccc34)CC2)CC1)C1CC1(F)F (stereo partly drawn) [Example 30, 2,2-Difluoro-cyclopropanecarboxylic acid trans-{4-[2-(4-benzofuran-3-yl-piperidin-1-yl)-ethyl]-cyclohexyl}-amide] | 8.07 | 8.45 | 189 °C | 7.55
O=C(N[C@H]1CC[C@H](CCN2CCC(c3coc4ccccc34)CC2)CC1)C1(O)CC1 [Example 22, 1-Hydroxy-cyclopropanecarboxylic acid trans-{4-[2-(4-benzofuran-3-yl-piperidin-1-yl)-ethyl]-cyclohexyl}-amide] | 8.52 | 8.83 | 200 °C | 7.32
Cc1cc(C(=O)N[C@H]2CC[C@H](CCN3CCC(c4coc5ccccc45)CC3)CC2)on1 [Example 41, 3-Methyl-isoxazole-5-carboxylic acid trans-{4-[2-(4-benzofuran-3-yl-piperidin-1-yl)-ethyl]-cyclohexyl}-amide] | 8.04 | 8.37 | 178 °C | 7.44
C/C=C/CC(=O)N[C@H]1CC[C@H](CCN2CCC(c3coc4ccccc34)CC2)CC1 [Example 54, (E)-Pent-3-enoic acid trans-{4-[2-(4-benzofuran-3-yl-piperidin-1-yl)-ethyl]-cyclohexyl}-amide] | 7.91 | 8.74 | 165 °C | 7.24
